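Results reflect a 48-hour exposure of cells in 96-well plates to compound at five concentrations. GI50 marks 50% less growth.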 The source made the active and inactive calls. Rule as the data show it: active = GI50 up to about 1.1 µM and inactive = higher.
Experiments:
Assay in all cases: NCI-60 cell line screen, 48 h
ACHN = test system: ACHN
COLO 205 = test system: COLO 205
DU-145 = test system: DU-145
EKVX = test system: EKVX
HL-60 = test system: HL-60
HOP-92 = test system: HOP-92
KM12 = test system: KM12
MDA-MB-231 = test system: MDA-MB-231
MOLT-4 = test system: MOLT-4
Malme-3M = test system: Malme-3M
NCI-H522 = test system: NCI-H522
NCI/ADR-RES = test system: NCI/ADR-RES
OVCAR-3 = test system: OVCAR-3
SF-295 = test system: SF-295
SK-MEL-5 = test system: SK-MEL-5
SN12C = test system: SN12C
TK-10 = test system: TK-10
UACC-62 = test system: UACC-62
NCI-H226 = test system: NCI-H226

Structure (SMILES)	GI50 (ACHN)	GI50 (COLO 205)	GI50 (DU-145)	GI50 (EKVX)	GI50 (HL-60)	GI50 (HOP-92)	GI50 (KM12)	GI50 (MDA-MB-231)	GI50 (MOLT-4)	GI50 (Malme-3M)	GI50 (NCI-H522)	GI50 (NCI/ADR-RES)	GI50 (OVCAR-3)	GI50 (SF-295)	GI50 (SK-MEL-5)	GI50 (SN12C)	GI50 (TK-10)	GI50 (UACC-62)	GI50 (NCI-H226)
CC(C)(C)OC(=O)N1CCC(C(=O)O)CC1	> 100 µM (inactive)	> 100 µM (inactive)	> 100 µM (inactive)	> 100 µM (inactive)	> 100 µM (inactive)	> 100 µM (inactive)	> 100 µM (inactive)	> 100 µM (inactive)	> 100 µM (inactive)	> 100 µM (inactive)	> 100 µM (inactive)	> 100 µM (inactive)	> 100 µM (inactive)	> 100 µM (inactive)	> 100 µM (inactive)	> 100 µM (inactive)	> 100 µM (inactive)	> 100 µM (inactive)	
O=[N+]([O-])c1ccc(/C=N/n2c(S)nnc2CCc2nnc(S)n2/N=C/c2ccc([N+](=O)[O-])o2)o1	23.1 µM (inactive)		16.2 µM (inactive)	> 100 µM (inactive)	33.6 µM (inactive)	17.2 µM (inactive)	22.8 µM (inactive)	24.7 µM (inactive)	24.8 µM (inactive)		22.2 µM (inactive)	23.8 µM (inactive)	24.6 µM (inactive)	> 100 µM (inactive)	17.3 µM (inactive)		84.1 µM (inactive)		> 100 µM (inactive)
CC(=O)Nc1ccc(NCC(=O)Nn2cnc3ccc(S(=O)(=O)Nc4ccc(NC(C)=O)cc4)cc3c2=O)cc1	> 100 µM (inactive)	> 100 µM (inactive)	> 100 µM (inactive)	> 100 µM (inactive)	> 100 µM (inactive)	> 100 µM (inactive)	> 100 µM (inactive)	> 100 µM (inactive)	> 100 µM (inactive)	> 100 µM (inactive)	> 100 µM (inactive)	> 100 µM (inactive)	> 100 µM (inactive)	> 100 µM (inactive)		> 100 µM (inactive)	> 100 µM (inactive)	> 100 µM (inactive)	> 100 µM (inactive)
CC#CC(=O)SCCNC(=O)CC	> 10 µM (inactive)	3.27 µM (inactive)	> 10 µM (inactive)	> 10 µM (inactive)	> 5.57 µM (inactive)		> 10 µM (inactive)	> 10 µM (inactive)	1.48 µM (inactive)	> 10 µM (inactive)	1.62 µM (inactive)	> 10 µM (inactive)	> 10 µM (inactive)	> 10 µM (inactive)	8.39 µM (inactive)	> 10 µM (inactive)	> 10 µM (inactive)	> 9.44 µM (inactive)	> 10 µM (inactive)
CCOC(=O)/C=C(/C(=O)OCC)n1c(=O)c(C)cn(C2CC(N=[N+]=[N-])C(CO)O2)c1=O (stereo not drawn)	32.9 µM (inactive)	14.5 µM (inactive)	43.5 µM (inactive)	28.1 µM (inactive)	2.31 µM (inactive)	30.8 µM (inactive)	50.1 µM (inactive)	20.7 µM (inactive)	< 0.01 µM (active)	54.3 µM (inactive)	20.7 µM (inactive)	> 100 µM (inactive)	19.5 µM (inactive)	79.6 µM (inactive)		37.2 µM (inactive)	37.2 µM (inactive)	85.9 µM (inactive)	45.4 µM (inactive)
C[C@H](CCC(=O)O[C@@H]1CC[C@@]2(C)C(CC[C@H]3[C@@H]4CC[C@H]([C@H](C)CCc5nc6ccccc6[nH]5)[C@@]4(C)CC[C@@H]32)C1)[C@H]1CC[C@H]2[C@@H]3CCC4C[C@H](O)CC[C@]4(C)[C@H]3CC[C@]12C (stereo partly drawn)	4.13 µM (inactive)	> 100 µM (inactive)	> 100 µM (inactive)	> 100 µM (inactive)	> 100 µM (inactive)	> 100 µM (inactive)	> 100 µM (inactive)	> 67.9 µM (inactive)	> 100 µM (inactive)		3.16 µM (inactive)	> 100 µM (inactive)	> 100 µM (inactive)	16.7 µM (inactive)	> 100 µM (inactive)	> 100 µM (inactive)	> 100 µM (inactive)	> 100 µM (inactive)	> 100 µM (inactive)
Clc1cc(N/N=C(/c2ccccc2)c2ncccn2)ncn1	4.78 µM (inactive)	4.29 µM (inactive)	39.2 µM (inactive)	17 µM (inactive)		14.7 µM (inactive)	43 µM (inactive)	20.2 µM (inactive)	5.87 µM (inactive)		2.56 µM (inactive)	20.1 µM (inactive)	20.2 µM (inactive)	24.6 µM (inactive)	25.8 µM (inactive)	29.2 µM (inactive)		32.2 µM (inactive)	56.4 µM (inactive)
CCc1ccc2oc(=O)ccc2c1	> 100 µM (inactive)	> 100 µM (inactive)	> 10 µM (inactive)	32.2 µM (inactive)	42.5 µM (inactive)	> 100 µM (inactive)	> 100 µM (inactive)	> 10 µM (inactive)	> 100 µM (inactive)	> 100 µM (inactive)	> 100 µM (inactive)	> 100 µM (inactive)	> 100 µM (inactive)	> 100 µM (inactive)	> 100 µM (inactive)	> 100 µM (inactive)		35.7 µM (inactive)	> 100 µM (inactive)
N#Cc1[nH]c(=O)n(-c2ccc(Cl)cc2)c1N	> 10 µM (inactive)	> 10 µM (inactive)	> 10 µM (inactive)	> 10 µM (inactive)	> 10 µM (inactive)		> 10 µM (inactive)	> 10 µM (inactive)	> 10 µM (inactive)	8.79 µM (inactive)	> 10 µM (inactive)	> 10 µM (inactive)	> 10 µM (inactive)	> 10 µM (inactive)	> 10 µM (inactive)	> 10 µM (inactive)	> 10 µM (inactive)	> 10 µM (inactive)	> 10 µM (inactive)
CC(=O)Nc1cc2nc3n(c2cc1C)CCC3OC(C)=O (stereo not drawn)	> 100 µM (inactive)	> 100 µM (inactive)	> 100 µM (inactive)	> 100 µM (inactive)	> 100 µM (inactive)	> 100 µM (inactive)	> 100 µM (inactive)	> 100 µM (inactive)	> 100 µM (inactive)	> 100 µM (inactive)	> 100 µM (inactive)	> 100 µM (inactive)	> 100 µM (inactive)	> 100 µM (inactive)		> 100 µM (inactive)		> 100 µM (inactive)	> 100 µM (inactive)
CC(=O)N1c2ccccc2C(C)C1c1[nH]c2ccccc2c1C (stereo not drawn)	32.3 µM (inactive)	13.5 µM (inactive)	28.3 µM (inactive)	18.1 µM (inactive)	18.6 µM (inactive)		16.1 µM (inactive)	18.6 µM (inactive)	19.7 µM (inactive)	39.7 µM (inactive)	15.9 µM (inactive)	24.1 µM (inactive)	19.5 µM (inactive)	15 µM (inactive)	13.7 µM (inactive)	17.1 µM (inactive)	22.8 µM (inactive)	18.4 µM (inactive)	25.3 µM (inactive)
N#Cc1c(-c2ccc(Cl)cc2)c(C#N)c(=O)n(NS(=O)(=O)c2ccccc2)c1S	24.9 µM (inactive)	30.5 µM (inactive)	52.8 µM (inactive)	32.6 µM (inactive)	16.6 µM (inactive)	44.7 µM (inactive)		26.7 µM (inactive)	21.6 µM (inactive)	25.9 µM (inactive)	18.2 µM (inactive)	21.2 µM (inactive)	23.1 µM (inactive)	34.2 µM (inactive)	14.2 µM (inactive)	25.2 µM (inactive)	18.5 µM (inactive)	19.1 µM (inactive)	30.3 µM (inactive)
NC1CC(N)c2c(Br)sc(Br)c21 (stereo not drawn)	> 100 µM (inactive)	> 100 µM (inactive)	> 100 µM (inactive)	> 100 µM (inactive)		28.6 µM (inactive)	> 100 µM (inactive)	> 100 µM (inactive)	67.5 µM (inactive)	> 100 µM (inactive)	44.1 µM (inactive)	> 100 µM (inactive)	> 100 µM (inactive)	98.9 µM (inactive)	> 100 µM (inactive)	> 100 µM (inactive)	> 100 µM (inactive)	> 100 µM (inactive)	77.1 µM (inactive)
COC(=O)[C@@H]1O[C@]12C(CO[Si](C)(C)C(C)(C)C)OC(n1ccc(=O)[nH]c1=O)C2O[Si](C)(C)C(C)(C)C (stereo partly drawn)	22 µM (inactive)	24.1 µM (inactive)	25.2 µM (inactive)	25.9 µM (inactive)	10.1 µM (inactive)	27.4 µM (inactive)	31.7 µM (inactive)	28.2 µM (inactive)	8.36 µM (inactive)		19.7 µM (inactive)	30.8 µM (inactive)	16.7 µM (inactive)	21.8 µM (inactive)	19.6 µM (inactive)	30.6 µM (inactive)	27.1 µM (inactive)	24.2 µM (inactive)	0.435 µM (active)
COc1ccc(C(=O)c2sc(Nc3ccccc3)nc2N)cc1	> 100 µM (inactive)		> 68.9 µM (inactive)	60.5 µM (inactive)	2.2 µM (inactive)	50.1 µM (inactive)		> 75.7 µM (inactive)	2.16 µM (inactive)	> 100 µM (inactive)	6.82 µM (inactive)	> 100 µM (inactive)	> 26.9 µM (inactive)	32.4 µM (inactive)	> 100 µM (inactive)	> 60.5 µM (inactive)	> 55.7 µM (inactive)	> 100 µM (inactive)	> 100 µM (inactive)

— ChEMBL document CHEMBL1201862, “PubChem BioAssay data set” (2004)
